In ChEMBL document CHEMBL5154750 (Bioorg Med Chem, 2022):

Assays:
HCT-116 [1] = experiment: Cytotoxicity against human HCT-116 cells assessed as reduction in cell viability; format: functional, cell-based
HL-60 [2] = experiment: Cytotoxicity against human HL-60 cells assessed as reduction in cell viability; format: functional, cell-based
HL-60 [3] = experiment: Cytotoxicity against human HL-60 cells assessed as cell viability at 1 uM relative to control; format: functional; conditions: read-out: Activity
HCT-116 [4] = experiment: Cytotoxicity against human HCT-116 cells assessed as cell viability at 1 uM relative to control; format: functional; conditions: read-out: Activity
HL-60 [5] = experiment: Cytotoxicity against human HL-60 cells assessed as cell viability at 10 uM relative to control; format: functional; conditions: read-out: Activity
HCT-116 [6] = experiment: Growth inhibition of human HCT-116 cells at 1 uM relative to control; format: functional; set-up: scale not given: the % may be the effect or the level left
HCT-116 [7] = experiment: Cytotoxicity against human HCT-116 cells assessed as cell viability at 10 uM relative to control; format: functional; conditions: read-out: Activity
[8] = Homo sapiens, HL-60, read-out: IC50

Row | Compound | IC50 (HCT-116 [1]) [µM] | IC50 (HL-60 [2]; hl-60) [µM] | viability at 1 µM (HL-60 [3]) [%] | viability at 1 µM (HCT-116 [4]) [%] | IC50 (HL-60 [2]; [8]) [µM] | viability at 10 µM (HL-60 [5]) [%] | Activity (HCT-116 [6]) [%] | viability at 10 µM (HCT-116 [7]) [%]
1 | COc1cccc2c1C(=O)c1c(O)c3c(c(O)c1C2=O)C[C@@](O)(C(=O)CO)C[C@@H]3O[C@H]1C[C@H](N)[C@H](O)[C@H](C)O1 [DOXORUBICIN] | 0.01 | 0.09 |  |  |  |  |  | 
2 | O=C1C=C2C(I)=C[C@@H]3C[C@]2(CN3Cc2ccccc2)O1 | 0.06 |  | 4 | 5 | 0.35 | 0 | 80.9 | 1
3 | O=C1C=C2C=C[C@@H]3C[C@@]2(O1)[C@H]1CCCCN31 [SECURININE] | 8.6 |  | 8 | 98 | 0.1 | 0.4 |  | 13
4 | O=C1C=C2C=C[C@@H]3C[C@]2(CN3Cc2ccccc2)O1 |  |  | 11 | 100 | 0.1 | 3 |  | 86
5 | CC(C)CN1C[C@]23C[C@H]1C=CC2=CC(=O)O3 |  |  | 15 | 83 |  | 1 |  | 78
